Measured values taken from paper PMC3602279 (Bioorganic & medicinal chemistry letters, 2013).
Entries after “also recorded” stand apart in the source; their conditions may differ.

Legend:
human κ opioid receptor = human κ opioid receptor (Homo sapiens, UniProt P41145); assay: [35S]GTPγS binding, stimulation and inhibition of agonist-stimulated binding; type: biochemical; conditions: for Functional description: Kappa Opioid Receptor; for Emax: read-out: Emax (% maximal stimulation)
human μ opioid receptor = human μ opioid receptor (Homo sapiens, UniProt P35372); assay: as above; type: biochemical; conditions: for Functional description / Imax (% maximal inhibition): Mu Opioid Receptor; for Imax (% maximal inhibition): inhibition of binding stimulated by 200 nM DAMGO; for Emax: read-out: Emax (% maximal stimulation)
Chain of human μ opioid receptor (P35372 whole entry): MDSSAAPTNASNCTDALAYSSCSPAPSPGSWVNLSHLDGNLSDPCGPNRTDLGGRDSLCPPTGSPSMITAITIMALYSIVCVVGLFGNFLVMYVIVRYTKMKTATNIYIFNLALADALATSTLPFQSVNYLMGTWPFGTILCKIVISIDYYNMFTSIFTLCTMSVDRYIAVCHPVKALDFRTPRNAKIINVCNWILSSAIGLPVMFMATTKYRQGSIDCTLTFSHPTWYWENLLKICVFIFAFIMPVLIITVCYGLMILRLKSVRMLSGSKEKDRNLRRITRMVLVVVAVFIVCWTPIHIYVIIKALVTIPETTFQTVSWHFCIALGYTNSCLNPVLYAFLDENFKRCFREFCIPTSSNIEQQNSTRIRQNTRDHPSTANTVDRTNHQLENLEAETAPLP

Chain of human κ opioid receptor (P41145 whole entry): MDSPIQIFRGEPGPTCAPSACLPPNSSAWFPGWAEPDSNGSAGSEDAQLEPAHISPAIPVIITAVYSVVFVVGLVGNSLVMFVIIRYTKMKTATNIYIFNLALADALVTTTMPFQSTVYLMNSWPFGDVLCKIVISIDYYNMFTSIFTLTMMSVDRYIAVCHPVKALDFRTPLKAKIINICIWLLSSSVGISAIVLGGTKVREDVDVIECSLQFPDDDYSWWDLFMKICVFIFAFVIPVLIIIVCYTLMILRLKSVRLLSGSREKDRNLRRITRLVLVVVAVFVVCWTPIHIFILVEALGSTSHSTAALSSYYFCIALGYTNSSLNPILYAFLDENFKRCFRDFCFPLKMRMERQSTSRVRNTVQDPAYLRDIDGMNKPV

| Compound | Functional description (human κ opioid receptor) | Emax (human κ opioid receptor) [%] | Functional description (human μ opioid receptor) | Imax (% maximal inhibition) (human μ opioid receptor) | Emax (human μ opioid receptor) [%] |
| --- | --- | --- | --- | --- | --- |
| CC1C2Cc3ccc(C(=O)NCCc4ccc(-c5ccccc5)cc4)cc3C1(C)CCN2CC1CC1 (racemic) [Compound 1, N-(2-[1,1′-biphenyl]-4-ylethyl)-3-(cyclopropylmethyl)-1,2,3,4,5,6-hexahydro-6,11-dimethyl-2,6-methano-3-benzazocine-8-carboxamide, reference compound] | agonist | 76 ± 6.7 |  |  |  |
| C[C@H]1C2Cc3ccc(C(=O)NCCc4ccc(-c5ccccc5)nc4)cc3[C@@]1(C)CCN2CC1CC1 [Compound 7] | agonist | 52 ± 4.8 | partial agonist | 87 ± 1.2 | 30 ± 2.3 |
| C[C@H]1C2Cc3ccc(C(N)=O)cc3[C@@]1(C)CCN2CC1CC1 [Compound 2, 8-carboxamidocyclazocine, reference compound] | agonist | 87 ± 6.5 | functional partial agonists; also recorded: partial agonist | 76 ± 1.1 | 24 ± 1.9 |
| C[C@H]1C2Cc3ccc(C(=O)NCCc4ccc(-c5ccccn5)cc4)cc3[C@@]1(C)CCN2CC1CC1 [Compound 6] | agonist | 50 ± 2.6 | partial agonist | 87 ± 3.1 | 31 ± 1.8 |
| C[C@H]1C2Cc3ccc(C(=O)NCCc4ccc(-c5cccnc5)cc4)cc3[C@@]1(C)CCN2CC1CC1 [Compound 5] | agonist | 52 ± 0.55 | partial agonist | 83 ± 2.9 | 28 ± 2.2 |
| C[C@H]1C2Cc3ccc(C(=O)NCCc4ccc(-c5ccccc5)cn4)cc3[C@@]1(C)CCN2CC1CC1 [Compound 8] | agonist | 64 ± 2.4 | partial agonist | 53 ± 5.4 | 25 ± 1.1 |
| C[C@H]1C2Cc3ccc(C(=O)NCCc4ccc(-c5ccncc5)cc4)cc3[C@@]1(C)CCN2CC1CC1 [Compound 4] | agonist | 64 ± 5.1 | partial agonist | 79 ± 3.3 | 33 ± 0.68 |
